{"source": "patent US7648977B2", "about": "“Pharmaceutical composition having a ruthenium oxalato compound and method of using the same” (The University of Hong Kong, priority 2005, dated 2010)", "key": {"[1]": {"test_system": "HIV-1(IIIB)", "settings": "0.5-50 μM, viral p24 antigen, FIG. 8", "procedure": "GHOST/CXCR4 and PBMC cells in 24-well plate (5×10^5 cells/well) were pretreated with compounds (400 μL) for an hour at 37° C. and subsequently infected in triplicate with a panel of CCR5-tropic HIV-1 isolates (with the addition of 5 μL of HIV-1 stock to each well, total p24 content=1500 pg) for 3 h. Following infection, the cells were washed to remove residual viral inoculums and cultured in the presence of compounds (400 μL) for 3 or 7 days. Culture supernatants were harvested and viral replication was measured by determination of viral p24 antigen concentration by ELISA (HIV-1 p24 antigen Kit, Beckman Coulter). Compounds were tested in triplicate at 3 concentrations ranging from 0.5-50 μM. AZT was also examined as a reference standard."}, "[2]": {"test_system": "HIV-1 infected Hut/CCR5 cells", "test": "TUNEL assay, cytoprotective activity in HIV-1 infected Hut/CCR5 cells", "format": "cell-based", "settings": "HIV-1 infected Hut/CCR5 cells, 0.5, 5 and 50 μM", "source_text": "The TUNEL reaction preferentially labels DNA strand breaks generated during apoptosis. This is done by labeling DNA strand breaks by terminal deoxynucleotidyl transferase (TdT), which catalyzes polymerization of labeled nucleotides to free 3′-OH DNA ends in a template-independent manner (TUNEL-reaction). The TUNEL method (In Situ Cell Death Detection Kit, Fluorescein, Roche) combined with flow cytometry was used for the measurement of apoptosis (Gorczyca et al. Cancer Res. (1993), 53, 1945). The quantitative analysis of 3′-OH ends was performed using the MDADS analysis program (Beckman Coulter).\nHIV-1 infected Hut/CCR5 cells were treated with 2 (0.5, 5, and 50 μM) for 3 days. The cells were fixed (in 4% paraformaldehyde in PBS, pH 7.4) and permeabilisated (0.1% Triton X-100 in 0.1% sodium citrate), The cells were then rinsed twice with PBS and labeled with 50 μL TUNEL reaction mixture (50 μL Enzyme solution +450 μL Label solution) for 60 min. at 37° C. in a humidified atmosphere in dark. The samples were rinsed with PBS three times and resuspended in 1 mL PBS containing 5 μg/mL of PI and 0.1% RNAse. Flow cytometry was performed on a FACScan cytometry. The red (PI) and green (fluorescein) fluorescence emissions from each cell were measured."}, "[3]": {"test_system": "HIV-1(BaL)", "settings": "Hut/CCR5 cells, 3 or 7 days, 0.5-50 μM, viral p24 antigen", "procedure": "Following infection, the cells were washed to remove residual viral inoculums and cultured in the presence of compounds (400 μL) for 3 or 7 days. Culture supernatants were harvested and viral replication was measured by determination of viral p24 antigen concentration by ELISA (HIV-1 p24 antigen Kit, Beckman Coulter). Compounds were tested in triplicate at 3 concentrations ranging from 0.5-50 μM."}, "[4]": {"target": "HIV-1 RT (Human immunodeficiency virus type 1 group M subtype B, UniProt P04585)", "settings": "percentage luminescence relative to untreated control", "experimental": "The inhibitory effect of different compounds on HIV-1 RT activities were assayed using a commercial assay kit (Reverse Transcriptase Assay, Chemiluminescent, Roche). […] (30 min.). The ELISA assays were conducted by following the manufacturer's instructions (Eberle and Seibl J. Virol. Methods (1992), 40, 347). In general, the indicated components were added to the corresponding wells of the microtitre plate from the kit and incubated for 1 h at 37° C. The solution in each well was then completely removed and the wells were rinsed five times with 250 μL of washing buffer per well. During each washing step, the washing buffer was left in the wells for a minimum of 30 seconds. The microtitre plate modules were covered and dried with a blotting paper, followed by the incubation with anti-DIG-POD working dilution was added (200 μL per well) for 1 h at 37° C. The solution was discarded followed by the washing and drying steps as described above. The POD substrate was added (200 μL per well) and was incubated at room temperature for 15 min. The chemiluminescent signal was measured and quantified using a microtitre plate chemiluminescence reader. The HIV-1 RT activities were evaluated based on percentage luminescence of the solutions relative to the negative control (untreated population)."}}}
{"substance": "Na7[Ru4(μ3-O)4(C2O4)6] [Complex 2]", "values": [{"measurement": "inhibition of HIV-1 replication in GHOST/CXCR4 cells", "setting": "[1]", "value": "inhibited"}, {"measurement": "inhibition of HIV-1 replication in PBMC cells", "setting": "[1]", "value": "inhibited"}, {"measurement": "cytoprotective activity (TUNEL)", "setting": "[2]", "value": "showed cytoprotective activity"}, {"measurement": "inhibition of HIV-1(BaL) replication", "setting": "[3]", "value": "inhibited"}, {"measurement": "inhibition of HIV-1 RT activity", "setting": "[4]", "value": "inhibited"}]}
